Laboratory results published in paper PMC7669869, “AdipoR1/AdipoR2 dual agonist recovers nonalcoholic steatohepatitis and related fibrosis via endoplasmic reticulum-mitochondria axis” (Nature Communications, 2020).
Several values for one entry are separate records, joined by “and”; a condition that tells them apart may be missing. Identical values can stand only once. Non-standard residues stand in square brackets, D forms with d. Residues, ends and D or L forms follow the SMILES beside them. Nva = CCC[C@H](N)C(=O)O

How the values were obtained:
HFD induced NASH mice [1] = assay: HFD mice: fasting blood glucose, fasting insulin and adiponectin (ELISA); format: in vivo, mouse; details: JT003 500 μg kg−1 i.p. daily 4 weeks, in words
Protocol: (§1) The NASH model was conducted with feeding a HFD for 16 weeks combine with a MCD diet (Methionine/Choline Deficient Diet, Medicience, China) in the last 4 weeks. Mice administered a MCS diet (Methionine/Choline Sufficient Diet, Medicience, China) serves as control group. NAFLD or NASH mice treated with JT003 for 4 weeks were used to evaluate the pharmacological effects (n = 6; 500 μg kg^−1; daily intraperitoneal injection). Food and water were provided ad libitum. The body weight of mice was examined every 3 days. The diet was renewed every 7 days. JT003 was diluted in PBS.
(§2) Fasting blood glucose was measured using OneTouch UltraVue Blood Glucose Meter and test strips (Johnson&Johnson, USA) from tail nicks. After HFD fed for 14 weeks and JT003 treated for 2 weeks, oral glucose tolerance tests were performed on 8 h fasted mice. 0.5 g ml^−1 D-glucose solution (Sigma-Aldrich, USA) were oral injected to mice (2 g kg^−1 of bodyweight), blood glucose level was recorded at baseline, 15, 30, 60, 120 min
The levels of ALT, AST, TC and TG in serum were determined using certain commercial assay kits (Nanjing Jiancheng Bioengineering Institute, China). Fasting adiponectin and insulin were quantified in plasma samples using corresponding commercially available Elisa kits (Cloud-Clone Crop, USA).

[2] = system: liver protein expression of HFD induced NASH mice; assay: HFD mice: liver western blot; format: in vivo, mouse; details: JT003 500 μg kg−1, in words
Protocol: as §1
Total protein was isolated from cells or liver samples using RIPA lysis buffer (50.0 mM Tris-HCl (pH = 8.0), 150.0 mM NaCl, 0.02% NaN3, 0.1% SDS, 1% NP-40, 0.5% deoxysodium cholate, 1 mM EDTA, […]). The protein concentration was quantified with BCA kit (Pierce, ThermoFisher Scientific, USA). Thirty micrograms protein were separated by 10 or 12% sodium dodecyl sulfate-polyacrylamide gel electrophoresis depending on the band of target protein, then transferred onto equilibrated polyvinylidene difluoride membrane (PVDF, Immobilon®-PSQ transfer membranes, Merck Millipore, Germany). Membranes were incubated with primary antibodies overnight at 4 °C. Specific antibodies were listed in Supplementary Table 3. After incubation with the secondary antibody, proteins were detected by enhanced chemiluminescence (Glarity^TM Western ECL Substrate, Bio-Rad, USA) and the signals were recorded and quantified with Tanon-Image Software (Shanghai, China). Reference antibody GAPDH were used for data normalization.

[3] = system: liver gene expression of CCl4 induced liver fibrosis mice; assay: CCl4 mice: liver mRNA, quantitative RT-PCR; format: in vivo, mouse; set-up: key to BAX liver mRNA / BID liver mRNA / UCP2 liver mRNA / DGAT1 liver mRNA / GSTM1 liver mRNA / GPX1 liver mRNA / HO-1 liver mRNA / XBP1 liver mRNA / ATF4 liver mRNA / GRP78 liver mRNA / BIM liver mRNA: mRNA expression normalized to β-actin reference gene; details: for BCL2 liver mRNA, relative expression (Apotosis), Supplementary Figure 16 / FAS liver mRNA, relative expression (Apotosis), Supplementary Figure 16: CCl4 + JT003 mice
Protocol: Male mice liver fibrosis was induced by intraperitoneal injection of 20% CCl4 (Sigma, USA) diluted in corn oil (Aladdin, China) every 3 days for 6 weeks (n = 6; 5 ml kg^−1 body weight). Mice injected with equivalent volume of corn oil serves as control group (n = 6). Liver fibrosis mice treated with JT003 for 3 weeks were used to evaluated the pharmacological effects (n = 6; 500 μg kg^−1; daily intraperitoneal injection).
Liver total RNA was extracted by using Trizol reagent following the manufacture’s instruction (TransGen Biotech, China). The concentration of RNA was measured by Nanodrop 2000 (ThermoFisher Scientific, USA). cDNA was transcribed from 10ug total RNA with First Strand cDNA synthesis Super Mix (TransGen Biotech, China). The cDNA was diluted 1/50 and 1.0 uL were used as a template for qPCR. qPCR was performed with SYBR Green qPCR Super Mix (TransGen Biotech, China) in the Light Cycler 480 Real-Time PCR System (Roche, Swiss). Reference gene β-actin was used for data normalization. mRNA expression was analyzed with specific primers listed in Supplementary Table 2.

HFD induced NASH mice [4] = assay: HFD mice: oral glucose tolerance test (OGTT); format: in vivo, mouse; details: JT003 500 μg kg−1, in words
Protocol: as §2

[5] = Pharmacokinetic assay in SD rats; format: in vivo, rat
Protocol: Male SpragueDawley (SD) rats were randomly divided into two groups (n = 3 per group) and received a single intravenous dose of JT003 (0.5 mg/kg) or ADP355 (1.0 mg kg^−1) respectively. Blood samples were collected at 5, 15, 30, 45 min and 1, 2, 3 h following the injection, and then were immediately centrifuged (4000g, 10 min, 4 °C) to obtain plasma samples. Plasma concentrations of the two peptides were measured by LC-MS/MS (ThermoFisher Scientific, USA). Pharmacokinetic parameters of JT003 and ADP355 were calculated using non-compartmental analysis in Phoenix WinNonlin (version 8.0, Pharsight, USA). The concentration values less than the LLOQ were set to zero for the analysis.

[6] = CCl4 fibrosis mice, liver, JT003 500 μg kg−1, in words
[7] = CCl4 mice, liver, JT003 500 μg kg−1, in words
[8] = Figure 7d left, CCl4 + JT003 group, single replicates, n = 6
[9] = Figure 7d right, CCl4 + JT003 group, single replicates, n = 6
[10] = Sprague-Dawley, rat, male SD rats, single iv dose: JT003 0.5 mg/kg, ADP355 1.0 mg/kg, plasma, LC-MS/MS, non-compartmental, Mean ± SD, n = 3-6

In the case of `CCC[C@H](NC(=O)[C@@H]1CCCN1)C(=O)N[C@@H](CC(C)C)C(=O)N[C@@H](Cc1ccc(O)cc1)C(=O)N[C@@H](Cc1ccc(O)cc1)C(=O)N[C@@H](Cc1ccccc1)C(=O)N[C@@H](C)C(N)=O` [JT003] (H-P[Nva]LYYFA-NH2), the “HFD-induced increasing of fasting blood glucose and fasting serum insulin levels” value (HFD induced NASH mice [1]) is reported as “decreased”, the “decrease in circulating adiponectin in the HFD group” value (HFD induced NASH mice [1]) is reported as “reverted remarkably” and the “PI3K and Akt phosphorylation in liver tissue” value [2] is reported as “increased”. For the same molecule, the “AMPK and PPARα signaling (western blotting)” value ([2]; liver) was “activated apparently”, the “expression of downstream factor PPARγ” value ([2]; liver) was “inhibited” and the “phosphorylation of PERK and its downstream eIF2α and JNK” value ([2]; liver) was “decreased notably”. For the same molecule, the “BCL2 liver mRNA, relative expression (Apotosis), Supplementary Figure 16” value (from here on “BCL2 liver mRNA, relative expression”) ([3]; replicate 1) was 19.1929, the “FAS liver mRNA, relative expression (Apotosis), Supplementary Figure 16” value (“FAS liver mRNA, relative expression” below) ([3]; replicate 1) was 0.7337 and the “BCL2 liver mRNA, relative expression” value ([3]; replicate 2) was 9.563. The “FAS liver mRNA, relative expression” value ([3]; replicate 2) was 0.7492, the “BCL2 liver mRNA, relative expression” value ([3]; replicate 3) was 15.2158 and the “FAS liver mRNA, relative expression” value ([3]; replicate 3) was 0.6522. The “BCL2 liver mRNA, relative expression” value ([3]; replicate 4) was 10.7592, the “FAS liver mRNA, relative expression” value ([3]; replicate 4) was 0.5898 and the “TGFβ, CTGF, IL-6, TNFα and IL-1β (HSCs activation)” value [3, 6] was “all suppressed”. For the same molecule, the “expression of genes related to ECM accumulation (TIMP1, MMP3 and MMP8)” value [3, 6] was “decreased”, the “genes involved in ECM elimination (MMP2, MMP9 and MMP13)” value [3, 6] was “notably upregulated” and the “ER-Stress related genes (XBP1, ATF4, GRP78 and BIM)” value ([3]; CCl4 induced fibrosis mice, liver, JT003 500 μg kg−1, in words) was “remarkably suppressed”. For the same molecule, the “anti-apoptotic BCL2 (RT-PCR)” value [3, 7] was “significantly improved”, the “apoptosis-related FAS (RT-PCR)” value [3, 7] was “reduced” and the “ATF4 liver mRNA” value [3, 8] was 1.16 and 0.7959 and 1.086 (2×) and 0.9357 and 1.157. The “BIM liver mRNA” value [3, 8] was 0.2472 and 0.8351 and 0.6258 and 0.6305 and 0.5305 and 0.5258, the “GRP78 liver mRNA” value [3, 8] was 0.8253 and 1.201 and 1.072 (2×) and 0.9986 and 0.797 and the “XBP1 liver mRNA” value [3, 8] was 2.911 and 0.8961 and 1.2156 (2×) and 1.656 and 1.136. The “DGAT1 liver mRNA” value ([3]; Figure 7d right, CCl4 + JT003 group, single replicates, 5 values) was 0.8433 and 1.099 and 1.191 and 0.9141 and 2.738, the “BAX liver mRNA” value [3, 9] was 1.955 and 0.8137 and 1.744 and 0.6724 and 1.0479 and 1.373 and the “BID liver mRNA” value [3, 9] was 1.296 and 0.8034 and 0.6436 and 0.8394 and 0.9828 and 0.9284. The “GPX1 liver mRNA” value [3, 9] was 0.4793 and 0.5322 and 0.6634 and 0.7144 and 0.5138 and 0.7293, the “GSTM1 liver mRNA” value [3, 9] was 0.3771 and 0.1875 and 0.195 and 1.014 and 0.3719 and 0.9044 and the “HO-1 liver mRNA” value [3, 9] was 1.179 and 1.19 and 1.314 and 1.134 and 1.372 and 1.274. For the same molecule, the “PGC1a liver mRNA” value [3, 9] was 1.328 and 1.046 and 1.167 and 1.184 and 1.337 and 1.083, the “PGC1b liver mRNA” value [3, 9] was 1.159 and 2.677 and 4.191 and 3.928 and 2.638 and 2.374 and the “UCP2 liver mRNA” value [3, 9] was 0.9325 and 1.681 and 1.172 and 0.7627 and 0.8293 and 0.6383. The “HFD-induced insulin resistance, oral glucose tolerance test” value (HFD induced NASH mice [4]) was “obviously ameliorated”, the AUC(0-inf) [5, 10] was 20.9 ± 1.63 ng·h/mL and the AUC(0-t) [5, 10] was 19.4 ± 1.51 ng·h/mL. For the same molecule, the MRT [5, 10] was 62.4 ± 1.8 min, the clearance [5, 10] was 401 mL/min/kg and the Vd ([5]; Sprague-Dawley, rat, male SD rats, single iv dose: JT003 0.5 mg/kg, ADP355 1.0 mg/kg, plasma, LC-MS/MS, non-compartmental, Mean ± SD, n = 3-6, read-out: V) was 26 ± 2.29 L/kg. For the same molecule, the t1/2 ([5]; male SD rats, single iv dose: JT003 0.5 mg/kg, ADP355 1.0 mg/kg, plasma, LC-MS/MS, non-compartmental, Mean ± SD, n = 3-6 (n = 3 per group)) was 45 ± 0.6 min and 45 min and the “improved circulating half-life vs the predecessor compound (ADP355)” value ([5]; reviewer's reading of the PK experiment) was 7-8 fold.
